In data set [1] the target is T1, human cloned 5-HT2A receptor, expressed in L929 cells (Homo sapiens, UniProt P28223).
T1 construct: expressed in transfected cells; host or cells: L929 cells
The experiment in a line: In vitro radioligand binding affinity for 5-HT2A receptor ([125I]R91150). Conditions: human cloned 5-HT2A receptor in L929 cells, [125I]R91150; for IC50: read-out: h-5HT2A (converted). The protocol: The interaction of the compounds of Formula (I) with 5-HT2A and 5-HT2C receptors was assessed in in vitro radioligand binding experiments. In general, a low concentration of a radioligand with a high binding affinity for the receptor is incubated with a sample of a tissue preparation enriched in a particular receptor (1 to 5 mg tissue) in a buffered medium (0.2 to 5 ml). During the incubation, the radioligands bind to the receptor. When equilibrium of binding is reached, the receptor bound radioactivity is separated from the non-bound radioactivity, and the receptor bound activity is counted. The interaction of the test compounds with the receptors is assessed in competition binding experiments. Various concentrations of the test compound are added to the incubation mixture containing the tissue preparation and the radioligand. Binding of the radioligand will be inhibited by the test compound in proportion to its binding affinity and its concentration. The affinities of the compounds for the 5-HT2 receptors were measured by means of radioligand binding studies conducted with: (a) human cloned 5-HT2A receptor, expressed in L929 cells using [^125I]R91150 as radioligand and (b) human cloned 5-HT2C receptor, expressed in CHO cells using [^3H]mesulergine as radioligand.

Data set [2] concerns the target T2, human cloned 5-HT2C receptor, expressed in CHO cells (Homo sapiens, UniProt P28335).
T2 construct: expressed in transfected cells; host or cells: CHO cells
T2 sequence (P28335 33-458): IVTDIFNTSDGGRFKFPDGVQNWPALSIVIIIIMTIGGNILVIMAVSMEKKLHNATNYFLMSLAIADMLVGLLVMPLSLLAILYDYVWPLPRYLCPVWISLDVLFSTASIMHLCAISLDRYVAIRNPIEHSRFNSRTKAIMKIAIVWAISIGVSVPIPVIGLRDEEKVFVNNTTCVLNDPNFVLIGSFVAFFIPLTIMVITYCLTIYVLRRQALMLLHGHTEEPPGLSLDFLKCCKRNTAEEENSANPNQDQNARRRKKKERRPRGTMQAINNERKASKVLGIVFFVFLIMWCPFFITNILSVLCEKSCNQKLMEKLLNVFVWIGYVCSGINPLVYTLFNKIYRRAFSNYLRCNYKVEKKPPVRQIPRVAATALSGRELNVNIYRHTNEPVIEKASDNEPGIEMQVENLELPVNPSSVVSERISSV
In words: In vitro radioligand binding affinity for 5-HT2C receptor ([3H]mesulergine). As to conditions: human cloned 5-HT2C receptor in CHO cells, [3H]mesulergine; for IC50: read-out: h-5HT2C (converted). As to the method:
The interaction of the compounds of Formula (I) with 5-HT2A and 5-HT2C receptors was assessed in in vitro radioligand binding experiments. […] During the incubation, the radioligands bind to the receptor. When equilibrium of binding is reached, the receptor bound radioactivity is separated from the non-bound radioactivity, and the receptor bound activity is counted. The interaction of the test compounds with the receptors is assessed in competition binding experiments. Various concentrations of the test compound are added to the incubation mixture containing the tissue preparation and the radioligand. Binding of the radioligand will be inhibited by the test compound in proportion to its binding affinity and its concentration.

For data set [3], the target named is T3, human Dopamine D2L receptor (Homo sapiens, UniProt P14416).
T3 construct: expressed in transfected cells; host or cells: CHO cells (frozen membranes)
In words: In vitro binding affinity for human D2L receptor ([3H]Spiperone). Conditions: human D2L receptor-transfected CHO cell membranes, [3H]Spiperone; for IC50: read-out: h-D2L (converted). The protocol:
Frozen membranes of human Dopamine D2L receptor-transfected CHO cells were thawed, briefly homogenised using an Ultra-Turrax T25 homogeniser and diluted in Tris-HCl assay buffer containing NaCl, CaCl2, MgCl2, KCl (50, 120, 2, 1, and 5 mM respectively, adjusted to pH 7.7 with HCl) to an appropriate protein concentration optimised for specific and non-specific binding. Radioligand [^3H]Spiperone (NEN, specific activity ˜70 Ci/mmol) was diluted in assay buffer at a concentration of 2 nmol/L. Prepared radioligand (50 μl), along with 50 μl of either the 10% DMSO control, Butaclamol (10-6 mol/l final concentration), or compound of interest, was then incubated (30 min, 37° C.) with 400 μl of the prepared membrane solution. Membrane-bound activity was filtered through a Packard Filtermate harvester onto GF/B Unifilterplates and washed with ice-cold Tris-HCl buffer (50 mM; pH 7.7; 6×0.5 ml). Filters were allowed to dry before adding scintillation fluid and counting in a Topcount scintillation counter. Percentage specific bound and competition binding curves were calculated using S-Plus software (Insightful).

A further data set concerns the target T4, NET (Rattus norvegicus, UniProt Q9WTR4).
T4 construct: Cortex from rat brain was collected and homogenised; from tissue; host or cells: rat brain cortex membranes
In words: In vitro determination of NET reuptake inhibition ([3H]Nixosetine binding, rat brain cortex membranes). The protocol: Cortex from rat brain was collected and homogenised using an Ultra-Turrax T25 and a Dual homogeniser in ice-cold homogenising buffer containing Tris, NaCl and KCl (50 mM, 120 mM and 5 mM, respectively, pH 7.4) prior to dilution to an appropriate protein concentration optimised for specific and non-specific binding. […] Membrane-bound activity was detected by filtration through a Packard Filtermate harvester onto GF/B Unifilterplates, washed with ice-cold Tris-HCl buffer, containing NaCl and KCl (50 mM, 120 mM and 4 mM; pH 7.4; 6×0.5 ml). Filters were allowed to dry for 24 h before adding scintillation fluid. Scintillation fluid was allowed to saturate filters for 24 h before counting in a Topcount scintillation counter. Percentage specific bound and competition binding curves were calculated using S-Plus software (Insightful).

Structures are written as SMILES.

T1 sequence (P28223 whole entry): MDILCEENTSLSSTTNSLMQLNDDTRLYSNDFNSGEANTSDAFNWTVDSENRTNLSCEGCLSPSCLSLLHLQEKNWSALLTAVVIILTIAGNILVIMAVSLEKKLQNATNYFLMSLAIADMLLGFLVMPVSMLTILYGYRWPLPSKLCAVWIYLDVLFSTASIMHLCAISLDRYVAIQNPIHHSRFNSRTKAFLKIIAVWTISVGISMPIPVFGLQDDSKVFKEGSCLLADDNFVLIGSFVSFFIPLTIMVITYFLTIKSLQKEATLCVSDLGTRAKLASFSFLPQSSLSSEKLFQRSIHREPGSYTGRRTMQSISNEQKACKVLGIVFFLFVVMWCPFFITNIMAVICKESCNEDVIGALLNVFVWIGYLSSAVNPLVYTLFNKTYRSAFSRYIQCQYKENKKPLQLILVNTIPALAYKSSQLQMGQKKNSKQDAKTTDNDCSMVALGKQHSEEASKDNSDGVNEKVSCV
T4 sequence (Q9WTR4 1-597): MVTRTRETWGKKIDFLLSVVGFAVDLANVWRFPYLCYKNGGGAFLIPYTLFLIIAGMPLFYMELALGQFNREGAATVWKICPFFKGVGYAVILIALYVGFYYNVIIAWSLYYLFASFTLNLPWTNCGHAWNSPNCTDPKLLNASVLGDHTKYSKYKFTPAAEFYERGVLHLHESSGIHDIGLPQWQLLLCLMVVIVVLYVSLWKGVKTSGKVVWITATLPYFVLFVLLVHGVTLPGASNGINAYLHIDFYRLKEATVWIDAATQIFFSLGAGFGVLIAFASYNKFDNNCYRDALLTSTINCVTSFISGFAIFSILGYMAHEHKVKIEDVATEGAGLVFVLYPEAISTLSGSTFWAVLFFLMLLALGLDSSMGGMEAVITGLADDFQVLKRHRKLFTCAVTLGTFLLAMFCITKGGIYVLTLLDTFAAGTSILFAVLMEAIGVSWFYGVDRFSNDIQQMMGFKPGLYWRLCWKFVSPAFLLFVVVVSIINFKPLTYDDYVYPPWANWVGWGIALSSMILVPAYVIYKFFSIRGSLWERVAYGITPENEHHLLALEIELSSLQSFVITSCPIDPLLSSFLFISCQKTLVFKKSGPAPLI
T3 sequence (P14416 whole entry): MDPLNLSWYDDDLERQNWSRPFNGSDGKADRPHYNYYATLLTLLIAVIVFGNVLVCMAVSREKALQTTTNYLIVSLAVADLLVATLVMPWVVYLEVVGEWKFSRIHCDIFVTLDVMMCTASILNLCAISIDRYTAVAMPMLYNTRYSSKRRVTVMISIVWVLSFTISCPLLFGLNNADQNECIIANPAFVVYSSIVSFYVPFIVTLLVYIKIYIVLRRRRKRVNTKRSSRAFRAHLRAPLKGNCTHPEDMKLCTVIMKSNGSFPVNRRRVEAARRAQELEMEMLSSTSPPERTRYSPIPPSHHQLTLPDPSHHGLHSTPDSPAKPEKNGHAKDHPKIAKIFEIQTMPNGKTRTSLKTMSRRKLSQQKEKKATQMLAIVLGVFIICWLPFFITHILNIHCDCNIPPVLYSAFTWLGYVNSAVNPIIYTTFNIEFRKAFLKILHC

With `O[C@H]1CO[C@H]2c3cc(F)ccc3Cc3ccccc3[C@H]2C1` [compound 29, (3R,4aR,13bR)-12-fluoro-2,3,4,4a,9,13b-hexahydrodibenzo[3,4:6,7]cyclohepta[1,2-b]-pyran-3-ol], the melting point was 59 to 61 °C.
Same read-out and setting: for `CNC1CO[C@H]2c3cc(F)ccc3Cc3ccccc3[C@H]2C1` (stereo in doubt) [compound 33, (3R,4aR,13bR)-12-fluoro-N-methyl-2,3,4,4a,9,13b-hexahydrodibenzo[3,4:6,7]cyclo-hepta[1,2-b]pyran-3-amine] the value was 55 to 56 °C.
In the case of `CN(C)C[C@H]1C[C@@H]2c3ccccc3Cc3ccc(F)cc3[C@H]2S1` [compound 23, [(2R,3aR,12bS)-11-fluoro-3,3a,8,12b-tetrahydro-2H-dibenzo[3,4:6,7]cyclohepta[1,2-b]thien-2-yl]-N,N-dimethylmethanamine], the IC50 was 661 nM in data set [1], 229 nM in data set [2], 5010 nM in data set [3] and 28.2 nM on NET.
The like results for `COCCN1[C@@H](CN(C)C)C[C@@H]2c3ccccc3Cc3ccc(F)cc3[C@H]21` [compound 40, [(2R,3aR,12bS)-11-Fluoro-1-(2-methoxyethyl)-1,2,3,3a,8,12b-hexahydrodibenzo-[3,4:6,7]-cyclohepta[1,2-b]pyrrol-2-yl]-N,N-dimethylmethanamine] were, in that order, 372 nM, 263 nM, more than 1000 nM and 479 nM.
As to `COC(=O)N1[C@@H](CN(C)C)C[C@@H]2c3ccccc3Cc3ccc(F)cc3[C@H]21` [36a, Methyl (2R,3aR, 12bS)-2-[(dimethylamino)methyl]-11-fluoro-3,3a,8,12b-tetrahydro dibenzo[3,4:6,7]cyclohepta[1,2-b]pyrrole-1(2H)-carboxylate], the h-5HT2A in data set [1] is on record as less than 6. Moreover, the h-5HT2C in data set [2] was less than 6. Besides, in data set [3], the h-D2L was less than 6. Besides, the “NET Reuptake Inhibition” value on NET is 6.16.
`N[C@@H]1CO[C@H]2c3cc(F)ccc3Cc3ccccc3[C@H]2C1` [compound 30, (3S,4aR,13bR)-12-fluoro-2,3,4,4a,9,13b-hexahydrodibenzo[3,4:6,7]cyclohepta[1,2-b]pyran-3-amine] gave a melting point of 74 to 76 °C. The IC50 in data set [1] was 269 nM. Moreover, in data set [2], the IC50 is 145 nM. Further, the IC50 in data set [3] is more than 1000 nM. On NET, the IC50 is 302 nM.
Take `CN1CC(=O)N2[C@@H](C[C@@H]3c4ccccc4Cc4ccc(F)cc4[C@H]32)C1` [compound 4, (5aS,14bR,15aS)-7-fluoro-2-methyl-1,2,3,5a,10,14b,15,15a-octahydro-4H-dibenzo [3′,4′:6′,7′]cyclohepta[1′,2′:4,5]pyrrolo[1,2-a]pyrazin-4-one]: the IC50 in data set [1], in data set [2] and in data set [3] was more than 1000 nM in each case. Besides, the “NET Reuptake Inhibition” value on NET is less than 5.
On to `CN(C)C[C@H]1C[C@@H]2c3ccccc3Cc3ccc(F)cc3[C@H]2N1CCO` [compound 39, 2-((2R,3aR,12bS)-2-[(dimethylamino)methyl]-11-fluoro-3,3a,8,12b-tetrahydrodibenzo-[3,4:6,7]cyclohepta[1,2-b]pyrrol-1(2H)-yl)ethanol], for which the melting point lay in the range of 88 to 90 °C. Also, the IC50 in data set [1] was 87.1 nM. Moreover, in data set [2], the IC50 is 46.8 nM. Further, the IC50 in data set [3] is more than 1000 nM. The compound also showed an IC50 on NET of 126 nM.
Regarding `O=C1NC[C@@H]2C[C@@H]3c4ccccc4Cc4ccc(F)cc4[C@H]3N12` [compound 15, (4aS,13bR,14aS)-6-fluoro-1,4a,9,13b,14,14a-hexahydrodibenzo[3′,4′:6′,7′]cyclohepta-[1′,2′:4,5]pyrrolo[1,2-c]imidazol-3(2H)-one], the IC50 in data set [1] is 8320 nM; in data set [2], 2340 nM; in data set [3] it was more than 10000 nM; at NET, 2400 nM.
The like results for `CC(=O)N1[C@@H](CN(C)C)C[C@@H]2c3ccccc3Cc3ccc(F)cc3[C@H]21` [36b, [(2R,3aR, 1 2bS)-1-acetyl-11-fluoro-1,2,3,3a,8,12b-hexahydrodibenzo[3,4:6,7]cyclohepta[1,2-b]pyrrol-2-yl]-N,N-dimethylmethanamine] were, in that order, more than 1000 nM, more than 1000 nM, more than 1000 nM and 3890 nM.
In data set [1], `CN(C)C[C@H]1C[C@@H]2c3ccccc3Cc3ccc(F)cc3[C@H]2N1C=O` [36c] gave a h-5HT2A of 6.26. Further, the h-5HT2C in data set [2] turned out to be 7.11. Moreover, the h-D2L in data set [3] is reported as 5.31. Further, on NET, the “NET Reuptake Inhibition” value worked out at 6.65.
Take `COCC(=O)N1[C@@H](CN(C)C)C[C@@H]2c3ccccc3Cc3ccc(F)cc3[C@H]21` [compound 10, [(2R,3aR,12bS)-11-fluoro-1-(methoxyacetyl)-1,2,3,3a,8,12b-hexahydrodibenzo[3 ,4:6,7]cyclohepta[1,2-b]pyrrol-2-yl]-N,N-dimethylmethanamine]: the IC50 was 692 nM in data set [1], 427 nM in data set [2], more than 1000 nM in data set [3] and 4790 nM at NET.
The like results for `CN1C[C@@H]2C[C@@H]3c4ccccc4Cc4ccc(F)cc4[C@H]3N2C1=O` [compound 16, (4aS,13bR,14aS)-6-fluoro-2-methyl-1,4a,9,13b,14,14a-hexahydrodibenzo[3′,4′:6′,7′]-cyclohepta[1′,2′:4,5]pyrrolo[1,2-c]imidazol-3(2H)-one] were, in that order, more than 10000 nM, more than 10000 nM, more than 10000 nM and more than 10000 nM.
The compound `O=C1CO[C@H]2c3cc(F)ccc3Cc3ccccc3[C@H]2C1` [compound 31, (4aR,13bR)-12-fluoro-4,4a,9,13b-tetrahydrodibenzo[3,4:6,7]cyclohepta[1,2-b]pyran-3(2H)-one] showed a melting point of 146 to 148 °C.
`CN(C)C[C@H]1C[C@@H]2c3ccccc3Cc3ccc(F)cc3[C@H]2N1` [37a, [(2R,3aR,12bS)-11-fluoro-1,2,3,3a,8,12b-hexahydrodibenzo[3,4:6,7]cyclohepta[1,2-b]-pyrrol-2-yl]-N,N-dimethylmethanamine]: the IC50 in data set [1] is 44.7 nM; in data set [2] it was 50.1 nM; in data set [3] it was 355 nM; at NET it was 7.94 nM.

What is called melting point is the temperature of the solid-liquid transition.

The values above are taken from patent publication US20090023721A1, “Novel Substituted Tetracyclic Tetrahydrofuran, Pyrrolidine and Tetrahydrothiophene Derivatives and Their Use as a Medicament” (priority 2005, published 2009).
